According to patent publication US8846024B2, “3′-[(2Z)-[1-(3,4-dimethylphenyl)-1,5-dihydro-3-methyl-5-oxo-4H-pyrazol-4-ylidene]hydrazino]-2′-hydroxy-[1,1′-biphenyl]-3-carboxylic acid bis-(monoethanolamine)” (GlaxoSmithKline LLC, priority 2002, dated 2014):
Values after ≈ are worked out from the molar mass of the structure shown. Like-named read-outs stand apart in the source and are kept apart here.

Legend:
[1] = Relative solubilities in water, 0.1% HCl and methanol; format: physicochemical; conditions: 25 °C, 25 deg
Description: The solubility of 3′-[(2Z)-[1-(3,4-dimethylphenyl)-1,5-dihydro-3-methyl-5-oxo-4H-pyrazol-4-ylidene]hydrazino]-2′-hydroxy-[1,1′-biphenyl]-3-carboxylic acid as the free acid (Compound A) and as the bis-(monoethanolamine) salt (Compound B) was determined in three different systems: water, 0.1 HCl and methanol.

[2] = Solubility of the free acid in water (stated in description); format: physicochemical; conditions: stated as approximate in the description
[3] = organic solvent or mixture, solvent methanol, read-out: Solubility at 25 deg, methanol
[4] = simulated gastric fluid, solvent 0.1% HCl, read-out: Solubility at 25 deg, 0.1% HCl
[5] = solvent water, read-out: Solubility at 25 deg, Water

Row | solubility [1, 3] | solubility [1, 4] | solubility [1, 5] | SMILES | solubility in water [2]
1 | 6400 µg/mL | < 1 µg/mL | 14200 µg/mL | CC1=NN(c2ccc(C)c(C)c2)C(=O)/C1=N\Nc1cccc(-c2cccc(C(=O)O)c2)c1O.NCCO.NCCO [Compound B, 3′-[(2Z)-[1-(3,4-dimethylphenyl)-1,5-dihydro-3-methyl-5-oxo-4H-pyrazol-4-ylidene]hydrazino]-2′-hydroxy-[1,1′-biphenyl]-3-carboxylic acid bis-(monoethanolamine)] | –
2 | 1900 µg/mL (≈ 4290 µM) | < 1 µg/mL | < 1 µg/mL | CC1=NN(c2ccc(C)c(C)c2)C(=O)/C1=N\Nc1cccc(-c2cccc(C(=O)O)c2)c1O [Compound A, 3′-[(2Z)-[1-(3,4-dimethylphenyl)-1,5-dihydro-3-methyl-5-oxo-4H-pyrazol-4-ylidene]hydrazino]-2′-hydroxy-[1,1′-biphenyl]-3-carboxylic acid] | approximately 5 micrograms per milliliter
